molecular target: T1, HIV-1 protease (Q7S mutant form) (Human immunodeficiency virus type 1 group M subtype B, UniProt P04585, Q495S); test: HIV-1 Protease RET assay; format: biochemical; details: Ave. Ki (nM), RET assay, Q7S enzyme, Morrison tight binding fit
T1 construct: made in house
Protocol: Ki's for the inhibitors of HIV-1 protease were determined using a resonance energy transfer (RET) assay. […] This enzyme is first partially purified as inclusion bodies from cell lysate. It is then solublized in 8M urea and passed through a Q-Sepharose column (Pharmacia) for further purification. To refold this protein, samples containing Q7S is dialyzed into 50 mM sodium phosphate pH 7.0, 50 mM NaCl, 10 mM DTT, and 10% glycerol.
The commercially available peptide substrate (Molecular Probes Cat. # H-2930) RE(EDANS)SQNYPIVQK(DABCYL)R is used to assess activity and Ki's. This peptide is cleaved quantitatively by HIV-1 Pr at the Tyr-Pro bond. The EDANS fluorophore absorbs at 340 nm and emits at 490 nm. The reaction is carried out in a 96 well plate in a total volume of 100 µL and is run for 12 minutes at 37 C under steady-state conditions with 5 µM substrate and 2 nM active dimer enzyme concentration. The literature value Km for this substrate and enzyme is 103+/−8 µM (See Matayoshi, et al., “Novel Fluorogenic Substrates for Assaying Retroviral Proteases by Resonance Energy Transfer,” Science 247, 954 (1990)). The buffer for this reaction is 0.1M sodium acetate pH 4.8, 1M NaCl, 1 mM EDTA, 5 mM dithiothreitol, 10% dimethyl sulfoxide and 1 mg/ml bovine serum albumin. Inhibition curves are fit using the Morrison tight binding equation.

In order of rising Ki:
1. Cc1c(O)cccc1C(=O)N[C@@H](Cc1ccccc1)[C@H](O)C(=O)N1CC(F)(F)C[C@H]1C(=O)NCc1c(F)cccc1Cl [Example C14, (S)-4,4-Difluoro-1-[(2S,3S)-2-hydroxy-3-(3-hydroxy-2-methyl-benzoylamino)-4-phenyl-butyryl]-pyrrolidine-2-carboxylic acid 2-chloro-6-fluoro-benzylamide]  2.5 nM
2. Cc1ccccc1CNC(=O)N[C@@H](Cc1ccccc1)[C@H](O)C(=O)N1CSC(C)(C)[C@H]1C(=O)NCc1ccccc1C [Example B62, 3-{(2S,3S)-2-Hydroxy-3-[3-(2-methyl-benzyl)-ureido]-4-phenyl-butyryl}-5,5-dimethyl-thiazolidine-4-carboxylic acid 2-methyl-benzylamide]  4.2 nM
3. CC(C)=CCNC(=O)[C@@H]1CC(F)(F)CN1C(=O)[C@@H](O)[C@H](Cc1ccccc1)NC(=O)c1cccc(O)c1C [Example C9, (S)-4,4-Difluoro-1-((2S,3S)-2-hydroxy-3-{[1-(3-hydroxy-2-methyl-phenyl)-methanoyl]-amino}-4-phenyl-butanoyl)-pyrrolidine-2-carboxylic acid (3-methyl-but-2-enyl)-amide]  6.3 nM
4. C=CCOC(=O)N[C@@H](Cc1ccccc1)[C@H](O)C(=O)N1CSC(C)(C)[C@H]1C(=O)NCc1c(F)cccc1F [Example B50, {(1S,2S)-1-Benzyl-3-[(R)-4-(2,6-difluoro-benzylcarbamoyl)-5,5-dimethyl-thiazolidin-3-yl]-2-hydroxy-3-oxo-propyl}-carbamic acid allyl ester]  7.4 nM
5. Cc1ccccc1CNC(=O)[C@@H]1C[C@@H]2CCCC[C@@H]2CN1C(=O)[C@@H](O)[C@H](Cc1ccccc1)NC(=O)c1cccc(O)c1C [Example C49, (3S,4aS,8aS)-2-((2S,3S)-2-Hydroxy-3-{[1-(3-hydroxy-2-methyl-phenyl)-methanoyl]-amino}-4-phenyl-butanoyl)-decahydro-isoquinoline-3-carboxylic acid 2-methyl-benzylamide]  150 nM

same assay, conditions: Ki, unit inferred

In order of rising Ki:
1. Cc1ccccc1CNC(=O)[C@H]1N(C(=O)[C@@H](O)[C@H](Cc2ccccc2)NC(=O)C2=CCCCC2)CSC1(C)C  4.7 nM
2. CC1(C)SCN(C(=O)[C@@H](O)[C@H](Cc2ccccc2)NC(=O)c2cccc3c2CCN3)[C@@H]1C(=O)NCc1cccs1  6.8 nM
3. Cc1ccccc1CNC(=O)C1N(C(=O)[C@@H](O)C(Cc2ccccc2)NC(=O)/C=C/c2c(Cl)cccc2Cl)CSC1(C)C (stereo partly shown)  11.9 nM
4. Cc1c(O)cccc1C(=O)N[C@@H](Cc1ccccc1)[C@H](O)C(=O)N1CSC2(CCC2)[C@@H]1C(=O)N[C@@H]1C=CCCC1  12.9 nM
5. Cc1ccccc1CNC(=O)[C@H]1N(C(=O)[C@@H](O)[C@H](Cc2ccccc2)NC(=O)COc2cccc3ncccc23)CSC1(C)C  14.2 nM
6. Cc1ccccc1CNC(=O)[C@@H]1CSCN1C(=O)[C@@H](O)[C@H](Cc1ccccc1)NC(=O)CCc1c(C)cccc1C  20 nM
7. Cc1ccccc1CNC(=O)C1N(C(=O)[C@@H](O)C(Cc2ccccc2)NC(=O)C(C)(C)C)CSC1(C)C (stereo partly shown)  47 nM
8. Cc1ccccc1CNC(=O)[C@H]1N(C(=O)[C@@H](O)[C@H](Cc2ccccc2)NC(=O)/C=C/c2ccco2)CSC1(C)C  60 nM
9. Cc1ccccc1CNC(=O)[C@H]1N(C(=O)[C@@H](O)[C@H](Cc2ccccc2)NC(=O)Cc2c(F)cccc2F)CSC1(C)C  72 nM
10. Cc1cccc(C)c1CNC(=O)[C@@H]1C[C@@H]2CCCC[C@@H]2CC1C(=O)[C@@H](O)[C@H](Cc1ccccc1)NC(=O)c1cccc(O)c1C (stereo partly shown)  83 nM
11. Cc1ccccc1CNC(=O)[C@H]1N(C(=O)[C@@H](O)[C@H](Cc2ccccc2)NC(=O)CC(C)NC(=O)OC(C)(C)C)CSC1(C)C (stereo partly shown)  122 nM
12. Cc1ccccc1CNC(=O)[C@H]1N(C(=O)[C@@H](O)[C@H](Cc2ccccc2)NC(=O)C(C)CN)CSC1(C)C (stereo partly shown)  158 nM
13. Cc1ccccc1CNC(=O)[C@H]1N(C(=O)[C@@H](O)[C@H](Cc2ccccc2)NC(=O)Oc2ccccc2)CSC1(C)C  368 nM
14. Cc1ccccc1CNC(=O)[C@@H]1N(C(=O)[C@@H](O)[C@H](Cc2ccccc2)NC(=O)CSc2c(C)cccc2C)CSC1(C)C  422 nM
